In the supplement of paper PMC12463676, “Small-molecule dissolution of stress granules by redox modulation benefits ALS models” (Nature Chemical Biology, 2025):

Columns and labels:
lipoamide = compound: NC(=O)CCCCC1CCSS1 [lipoamide]; experiment: thermal stability z-score vs DMSO; higher = more thermally stabilized by treatment; details: HeLa, lipoamide concentration 100 µM
Method: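 Cellular thermal proteome profiling in HeLa cells. Cells were treated with 100 µM lipoamide for 1 h, with or without 1 mM arsenate for a further 1 h, then heated to ten temperatures (37-66.3 °C), and soluble protein was quantified by TMT mass spectrometry relative to 0.1% DMSO controls. The thermal stability score (sum of log2 fold changes minus the abundance score) was transformed to a z-score; mean of n = 3 experiments.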

potassium arsenate = compound: O=[As]([O-])(O)O.[K+] [potassium arsenate]; experiment: as above; details: HeLa; arsenate concentration 1 mM
Method: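 Cellular thermal proteome profiling in HeLa cells treated with 1 mM arsenate for 1 h (DMSO pretreatment), heated to ten temperatures (37-66.3 °C). Soluble protein was quantified by TMT mass spectrometry relative to DMSO controls; the thermal stability score was transformed to a z-score; mean of n = 3 experiments.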

[1] = arsenate co-treatment: 1 mM arsenate 1 h
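Further: each temperature applied for 3 min, abundance score taken as mean log2 fold change at the two lowest temperatures, z-score obtained by mean subtraction and division by SD.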

UniProt Q9Y3B8, sequence (Q9Y3B8 whole entry): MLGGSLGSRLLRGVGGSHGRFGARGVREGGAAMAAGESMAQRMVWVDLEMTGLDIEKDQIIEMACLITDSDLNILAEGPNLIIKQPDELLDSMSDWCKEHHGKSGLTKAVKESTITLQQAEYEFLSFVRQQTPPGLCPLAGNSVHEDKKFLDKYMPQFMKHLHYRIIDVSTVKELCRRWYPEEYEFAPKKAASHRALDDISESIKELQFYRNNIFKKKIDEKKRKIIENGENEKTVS
UniProt P35241, sequence (P35241 whole entry): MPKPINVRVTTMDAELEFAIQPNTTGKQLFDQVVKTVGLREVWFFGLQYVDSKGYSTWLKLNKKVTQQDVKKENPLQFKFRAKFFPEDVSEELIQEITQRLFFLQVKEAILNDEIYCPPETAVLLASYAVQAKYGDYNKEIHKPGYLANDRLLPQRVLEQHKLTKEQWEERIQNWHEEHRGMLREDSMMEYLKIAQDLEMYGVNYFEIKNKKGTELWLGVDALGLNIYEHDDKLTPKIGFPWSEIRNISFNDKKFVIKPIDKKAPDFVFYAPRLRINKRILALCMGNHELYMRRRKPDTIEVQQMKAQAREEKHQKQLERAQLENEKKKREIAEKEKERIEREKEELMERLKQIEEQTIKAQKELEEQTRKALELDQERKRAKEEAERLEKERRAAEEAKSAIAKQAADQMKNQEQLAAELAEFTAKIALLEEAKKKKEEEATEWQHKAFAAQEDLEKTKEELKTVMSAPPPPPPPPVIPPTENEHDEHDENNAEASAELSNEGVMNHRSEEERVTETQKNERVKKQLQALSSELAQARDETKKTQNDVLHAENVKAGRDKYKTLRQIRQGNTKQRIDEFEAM
UniProt P40938, sequence (P40938 whole entry): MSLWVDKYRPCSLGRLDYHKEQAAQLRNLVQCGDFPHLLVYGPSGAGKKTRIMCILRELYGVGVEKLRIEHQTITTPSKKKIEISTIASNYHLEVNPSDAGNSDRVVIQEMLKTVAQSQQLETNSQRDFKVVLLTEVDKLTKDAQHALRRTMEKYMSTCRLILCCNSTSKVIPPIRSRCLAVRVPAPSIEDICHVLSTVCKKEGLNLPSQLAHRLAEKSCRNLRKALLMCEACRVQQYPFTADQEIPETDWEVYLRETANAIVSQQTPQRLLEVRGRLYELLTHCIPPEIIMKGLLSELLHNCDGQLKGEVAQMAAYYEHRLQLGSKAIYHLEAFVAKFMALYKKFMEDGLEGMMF
UniProt Q6R327, sequence (Q6R327 whole entry): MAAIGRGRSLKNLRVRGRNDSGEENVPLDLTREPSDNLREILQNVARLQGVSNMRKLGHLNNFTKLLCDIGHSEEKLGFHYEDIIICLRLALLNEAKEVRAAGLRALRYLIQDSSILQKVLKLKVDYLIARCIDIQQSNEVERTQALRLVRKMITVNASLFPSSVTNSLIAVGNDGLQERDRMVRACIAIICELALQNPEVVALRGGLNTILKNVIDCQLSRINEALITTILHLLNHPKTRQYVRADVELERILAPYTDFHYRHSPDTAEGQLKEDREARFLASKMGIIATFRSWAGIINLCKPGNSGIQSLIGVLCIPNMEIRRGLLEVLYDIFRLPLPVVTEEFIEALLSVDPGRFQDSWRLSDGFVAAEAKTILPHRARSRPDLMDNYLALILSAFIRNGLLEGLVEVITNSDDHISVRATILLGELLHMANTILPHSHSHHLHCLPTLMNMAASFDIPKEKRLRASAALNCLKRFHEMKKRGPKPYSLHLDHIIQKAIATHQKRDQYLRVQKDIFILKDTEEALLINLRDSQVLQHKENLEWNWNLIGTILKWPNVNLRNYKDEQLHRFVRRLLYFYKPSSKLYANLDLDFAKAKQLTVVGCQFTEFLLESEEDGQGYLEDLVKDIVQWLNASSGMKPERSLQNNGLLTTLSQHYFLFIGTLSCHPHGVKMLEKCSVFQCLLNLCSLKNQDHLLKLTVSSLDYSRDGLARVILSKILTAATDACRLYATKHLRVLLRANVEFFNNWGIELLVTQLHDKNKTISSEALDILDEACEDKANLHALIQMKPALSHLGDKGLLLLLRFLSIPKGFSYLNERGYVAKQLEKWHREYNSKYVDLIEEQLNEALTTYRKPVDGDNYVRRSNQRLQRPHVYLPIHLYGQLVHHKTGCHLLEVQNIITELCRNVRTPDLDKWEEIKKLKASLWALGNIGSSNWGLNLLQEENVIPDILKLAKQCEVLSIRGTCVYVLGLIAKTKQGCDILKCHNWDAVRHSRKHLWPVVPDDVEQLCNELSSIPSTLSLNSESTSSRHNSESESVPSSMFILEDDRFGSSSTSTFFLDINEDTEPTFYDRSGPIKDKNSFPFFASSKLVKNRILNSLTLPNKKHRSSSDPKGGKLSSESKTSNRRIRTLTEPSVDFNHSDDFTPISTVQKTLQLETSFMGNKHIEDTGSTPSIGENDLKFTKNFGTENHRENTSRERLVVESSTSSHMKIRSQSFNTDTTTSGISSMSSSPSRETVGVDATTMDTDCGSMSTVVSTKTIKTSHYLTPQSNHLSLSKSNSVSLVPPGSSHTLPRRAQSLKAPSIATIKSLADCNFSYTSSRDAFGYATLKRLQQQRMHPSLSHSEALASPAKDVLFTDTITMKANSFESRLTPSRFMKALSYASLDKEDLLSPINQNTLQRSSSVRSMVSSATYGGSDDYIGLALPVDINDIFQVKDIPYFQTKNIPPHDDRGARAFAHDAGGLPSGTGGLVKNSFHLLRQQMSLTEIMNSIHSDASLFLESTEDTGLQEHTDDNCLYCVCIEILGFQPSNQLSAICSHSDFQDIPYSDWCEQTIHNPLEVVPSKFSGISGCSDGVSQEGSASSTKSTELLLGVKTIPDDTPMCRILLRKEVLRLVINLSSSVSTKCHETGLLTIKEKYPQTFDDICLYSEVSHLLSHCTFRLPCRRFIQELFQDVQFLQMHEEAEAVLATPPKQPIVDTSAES
UniProt O43665, sequence (O43665 whole entry): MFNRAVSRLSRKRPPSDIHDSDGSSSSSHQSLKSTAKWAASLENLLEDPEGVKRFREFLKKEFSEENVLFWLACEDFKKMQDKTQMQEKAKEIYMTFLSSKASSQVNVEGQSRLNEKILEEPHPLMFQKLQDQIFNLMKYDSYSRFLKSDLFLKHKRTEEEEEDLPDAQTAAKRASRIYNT
UniProt Q15434, sequence (Q15434 whole entry): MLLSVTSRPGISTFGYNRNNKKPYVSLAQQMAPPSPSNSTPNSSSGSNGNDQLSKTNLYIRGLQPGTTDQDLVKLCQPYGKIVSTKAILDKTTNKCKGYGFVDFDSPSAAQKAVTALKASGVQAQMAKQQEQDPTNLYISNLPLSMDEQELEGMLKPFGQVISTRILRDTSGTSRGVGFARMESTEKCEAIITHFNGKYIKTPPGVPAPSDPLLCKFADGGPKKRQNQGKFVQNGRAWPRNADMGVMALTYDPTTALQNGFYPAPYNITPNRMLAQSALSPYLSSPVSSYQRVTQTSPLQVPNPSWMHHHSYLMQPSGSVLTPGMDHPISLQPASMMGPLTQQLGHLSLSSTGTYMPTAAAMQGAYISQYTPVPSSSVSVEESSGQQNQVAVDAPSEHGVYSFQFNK
UniProt P22670, sequence (P22670 whole entry): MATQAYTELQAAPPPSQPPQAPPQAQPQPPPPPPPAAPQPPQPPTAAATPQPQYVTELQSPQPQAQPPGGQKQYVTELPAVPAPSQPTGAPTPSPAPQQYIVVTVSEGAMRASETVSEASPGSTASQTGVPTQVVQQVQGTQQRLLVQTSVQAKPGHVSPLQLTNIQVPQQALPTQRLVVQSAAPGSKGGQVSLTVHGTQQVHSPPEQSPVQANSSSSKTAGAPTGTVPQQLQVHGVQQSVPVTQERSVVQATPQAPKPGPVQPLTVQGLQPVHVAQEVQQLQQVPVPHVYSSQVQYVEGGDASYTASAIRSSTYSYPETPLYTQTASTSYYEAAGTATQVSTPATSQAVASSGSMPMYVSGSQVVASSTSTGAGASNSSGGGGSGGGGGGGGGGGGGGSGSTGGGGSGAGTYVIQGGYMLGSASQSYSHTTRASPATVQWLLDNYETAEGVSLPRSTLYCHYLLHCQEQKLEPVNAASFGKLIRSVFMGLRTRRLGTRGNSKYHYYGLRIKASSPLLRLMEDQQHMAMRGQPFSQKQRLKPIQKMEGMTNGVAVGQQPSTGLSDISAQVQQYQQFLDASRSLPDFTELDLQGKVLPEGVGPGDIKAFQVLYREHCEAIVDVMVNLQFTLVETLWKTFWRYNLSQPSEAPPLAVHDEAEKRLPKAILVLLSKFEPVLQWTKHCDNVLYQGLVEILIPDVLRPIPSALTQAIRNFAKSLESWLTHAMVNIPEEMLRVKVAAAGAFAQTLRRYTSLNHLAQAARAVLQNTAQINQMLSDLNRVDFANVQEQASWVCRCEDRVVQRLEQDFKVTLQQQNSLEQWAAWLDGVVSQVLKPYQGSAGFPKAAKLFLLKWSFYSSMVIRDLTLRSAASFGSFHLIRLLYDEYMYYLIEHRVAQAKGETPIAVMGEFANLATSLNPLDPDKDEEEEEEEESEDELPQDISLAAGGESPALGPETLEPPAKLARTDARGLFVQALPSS
UniProt Q96AA3, sequence (Q96AA3 whole entry): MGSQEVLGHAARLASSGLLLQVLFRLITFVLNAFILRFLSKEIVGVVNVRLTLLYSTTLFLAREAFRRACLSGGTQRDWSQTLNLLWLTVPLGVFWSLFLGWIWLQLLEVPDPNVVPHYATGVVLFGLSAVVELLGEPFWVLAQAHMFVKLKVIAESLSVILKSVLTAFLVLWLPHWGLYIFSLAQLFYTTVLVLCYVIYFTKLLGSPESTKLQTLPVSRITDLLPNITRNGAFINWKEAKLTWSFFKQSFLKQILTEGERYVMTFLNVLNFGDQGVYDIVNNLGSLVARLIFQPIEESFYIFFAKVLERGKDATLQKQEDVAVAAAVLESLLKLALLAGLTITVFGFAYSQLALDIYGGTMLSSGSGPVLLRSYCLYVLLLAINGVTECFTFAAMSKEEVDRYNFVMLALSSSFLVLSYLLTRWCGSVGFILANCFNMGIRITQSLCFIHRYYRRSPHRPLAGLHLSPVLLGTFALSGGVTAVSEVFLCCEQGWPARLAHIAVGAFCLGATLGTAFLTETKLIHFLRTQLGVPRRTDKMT

| Target | thermal stability z-score (lipoamide; [1]) | thermal stability z-score (lipoamide; arsenate co-treatment: none) | thermal stability z-score (potassium arsenate) |
| --- | --- | --- | --- |
| RBM42 (UniProt Q9BTD8) | 0.952 | 0.152 | -0.098 |
| RBM47 | 0.133 | -0.661 | -0.629 |
| RBMS1 (UniProt P29558) | -0.643 | 0.176 | -0.265 |
| RBMS2 (UniProt Q15434) | 0.0996 | 0.158 | -0.0696 |
| RBMX (UniProt P38159) | 1.51 | 0.311 | -0.366 |
| RBPJ (UniProt Q06330) | 0.252 | -0.0841 | -0.676 |
| RBSN (UniProt Q9H1K0) | 0.0643 | 0.16 | -0.113 |
| RBX1 (UniProt P62877) | -0.311 | 0.0681 | 0.163 |
| RC3H1 (UniProt Q5TC82) | -0.195 | -0.0428 | -0.351 |
| RCC1 (UniProt P18754) | -0.231 | -0.0308 | -0.548 |
| RCC2 (UniProt Q9P258) | -0.997 | -0.671 | -0.0515 |
| RCCD1 (UniProt A6NED2) | 0.452 | 0.179 | -0.297 |
| RCHY1 (UniProt Q96PM5) | -0.131 | -0.0834 | -0.571 |
| RCL1 (UniProt Q9Y2P8) | 1.4 | 0.192 | 2.29 |
| RCN1 (UniProt Q15293) | -1.02 | -0.814 | 0.52 |
| RCN2 (UniProt Q14257) | -3.71 | -2.81 | 0.788 |
| RCN3 (UniProt Q96D15) | -0.715 | -0.986 | -0.0957 |
| RCOR1 (UniProt Q9UKL0) | 1.01 | 0.999 | -0.739 |
| RCOR3 (UniProt Q9P2K3) | 0.0711 | 0.0826 | 0.119 |
| RDH10 (UniProt Q8IZV5) | 0.347 | 0.244 | 0.115 |
| RDH11 (UniProt Q8TC12) | -0.514 | 0.808 | 0.385 |
| RDH13 (UniProt Q8NBN7) | -0.0891 | -0.278 | 0.307 |
| RDH14 (UniProt Q9HBH5) | 1.25 | 0.852 | 1.53 |
| RDX (UniProt P35241) | 0.749 | 0.45 | 0.883 |

| Target | thermal stability z-score (lipoamide; [1]) | thermal stability z-score (lipoamide; arsenate co-treatment: none) | thermal stability z-score (potassium arsenate) |
| --- | --- | --- | --- |
| RECQL5 (UniProt O94762) | -0.0312 | 0.0721 | -0.222 |
| RECQL (UniProt P46063) | 1.17 | 0.899 | -1.22 |
| REEP3 (UniProt Q6NUK4) | 0.197 | -0.171 | -0.0274 |
| REEP4 (UniProt Q9H6H4) | -0.55 | -0.227 | 0.579 |
| REEP5 (UniProt Q00765) | 0.359 | 1 | 0.354 |
| REEP6 (UniProt Q96HR9) | 0.703 | 0.825 | 0.0059 |
| REL (UniProt Q04864) | -0.801 | 0.147 | 0.22 |
| RELA (UniProt Q04206) | 0.384 | 0.867 | 0.374 |
| RELB (UniProt Q01201) | -0.128 | -0.07 | 0.048 |
| REPIN1 (UniProt Q9BWE0) | -0.686 | -0.309 | 0.53 |
| REPS1 (UniProt Q96D71) | -0.864 | -0.26 | 0.157 |
| REPS2 (UniProt Q8NFH8) | 0.13 | -0.0113 | -0.0535 |
| RER1 (UniProt O15258) | 0.802 | 0.615 | 0.934 |
| RERE (UniProt Q9P2R6) | 0.0956 | -0.103 | 0.00489 |
| RETSAT (UniProt Q6NUM9) | 0.0873 | 0.172 | -0.259 |
| REXO2 (UniProt Q9Y3B8) | 0.295 | 0.536 | 0.192 |
| REXO4 (UniProt Q9GZR2) | -0.103 | -0.118 | -0.149 |
| RFC1 (UniProt P35251) | -0.248 | 1.77 | -0.0625 |
| RFC2 (UniProt P35250) | -0.0963 | -0.26 | 0.381 |
| RFC3 (UniProt P40938) | -0.548 | -0.365 | -0.0936 |
| RFC4 (UniProt P35249) | -0.184 | -0.331 | 0.802 |
| RFC5 (UniProt P40937) | -0.341 | -0.0735 | 0.971 |
| RFK (UniProt Q969G6) | -0.697 | -0.27 | 0.313 |
| RFT1 (UniProt Q96AA3) | -0.878 | -0.767 | -0.609 |

| Target | thermal stability z-score (lipoamide; [1]) | thermal stability z-score (lipoamide; arsenate co-treatment: none) | thermal stability z-score (potassium arsenate) |
| --- | --- | --- | --- |
| RFX1 (UniProt P22670) | 1.04 | 0.453 | 0.128 |
| RFX5 (UniProt P48382) | 0.562 | 0.613 | 0.132 |
| RGS10 (UniProt O43665) | 0.748 | 0.902 | 0.0472 |
| RHBDD2 (UniProt Q6NTF9) | -0.424 | -0.384 | -0.574 |
| RHBDF2 (UniProt Q6PJF5) | -0.0324 | -0.158 | 0.166 |
| RHEB (UniProt Q15382) | -0.13 | 0.625 | 1.46 |
| RHOA (UniProt P61586) | 0.316 | 0.411 | 0.103 |
| RHOB (UniProt P62745) | 0.0865 | 0.065 | -0.245 |
| RHOBTB3 (UniProt O94955) | 0.00346 | 0.217 | -0.0881 |
| RHOC (UniProt P08134) | 0.307 | 0.963 | 0.995 |
| RHOF (UniProt Q9HBH0) | 0.288 | 0.301 | 0.478 |
| RHOG (UniProt P84095) | 0.489 | 0.491 | 0.00682 |
| RHOT1 (UniProt Q8IXI2) | -0.488 | -0.262 | -0.708 |
| RHOT2 (UniProt Q8IXI1) | -0.832 | -0.929 | -0.176 |
| RHPN2 (UniProt Q8IUC4) | -0.97 | -1.32 | 0.193 |
| RIC8A (UniProt Q9NPQ8) | -0.305 | -0.238 | 0.476 |
| RIC8B (UniProt Q9NVN3) | -1.09 | -0.233 | -0.00195 |
| RICTOR (UniProt Q6R327) | -1.23 | -0.161 | 0.166 |
| RIF1 (UniProt Q5UIP0) | 0.0548 | -0.0166 | -0.353 |
| RILP (UniProt Q96NA2) | -0.0778 | 0.284 | 0.0653 |
| RILPL1 (UniProt Q5EBL4) | 0.571 | 0.0309 | 1.21 |
| RIN1 (UniProt Q13671) | -0.105 | -0.041 | 0.0874 |
| RING1 (UniProt Q06587) | -0.0364 | 0.0555 | -0.0985 |
| RINT1 (UniProt Q6NUQ1) | -0.699 | -0.111 | 0.354 |
